{
  "source": "paper PMC10238420",
  "about": "“Altered Signaling and Desensitization Responses in PTH1R Mutants Associated with Eiken Syndrome” (Communications Biology, 2023)",
  "key": {"PTH1R-R485X [1]": {"tested_on": "PTH1R-R485X", "procedure": "(§1) Images are representative of three independent experiments.\nData are representative of three independent experiments (a-d); or means ± SEM of three or four independent experiments (e, f). Bar heights in graphs of panels b and d indicate the means ± SEM of counts from the five cells shown by the individual data points. Scale bars in a and c indicate 10 μm.\nLigand-induced recruitment of β-arrestin2^YFP was assessed in GBR-24 cells, which are HEK293/glosensor (Gs22A)-derived cells stably expressing β-arrestin2^YFP [42]. The cells in six-well plates were transiently transfected with plasmid DNA encoding PTH1R-WT or mutant derivative, and 24 hours later seeded onto glass coverslips in 6-well plates. […] In some experiments, the cells were imaged by confocal microscopy using a Leica DMi8 inverted Microscope at ×400 magnification, and the images were processed using Leica Application Suite X (LAS X) software. Regions of interest were digitally expanded 3-5X to improve views.\nQuantification of β-arrestin2^YFP clusters was performed using ImageJ software (vers. 1.53)[67]. The color images were converted to 8 bit and then 16 bit gray-scale, and the threshold was adjusted on a cell-by-cell basis to show distinct particles (interpreted as clusters of β-arrestin2^YFP in intracellular vesicles); threshold values ranged from ~ 20-60. The free-hand tool was used to define the area analyzed for each cell, and the Analyze Particle tool was used to obtain the number of particles, the total area, and the mean gray scale (intensity) of each particle for each cell."}, "PTH1R-E35K [2]": {"target": "T1, PTH1R-E35K (Homo sapiens, UniProt Q03431, E35K)", "experiment": "BRET β-arrestin2 recruitment to early endosomes (rGFP-FYVE), HEK293", "type": "cell-based", "text": "as §1\n(§2) Scale bars in a and c indicate 10 μm."}, "PTH1R-E35K [3]": {"target": "T1, PTH1R-E35K", "experiment": "Fluorescence microscopy of ligand internalization and β-arrestin2YFP recruitment, GBR-24 cells, ImageJ", "type": "cell-based", "text": "as §1, §2"}, "PTH1R-Y134S [4]": {"target": "T2, PTH1R-Y134S (Homo sapiens, UniProt Q03431, Y134S)", "experiment": "Fluorescence microscopy of ligand internalization and β-arrestin2YFP recruitment, GBR-24 cells, ImageJ", "type": "cell-based", "text": "as §1, §2"}, "PTH1R-E35K [5]": {"target": "T1, PTH1R-E35K", "experiment": "cAMP time course with ligand and after ligand washout (duration), Gs22a cells", "type": "cell-based", "conditions": "10 nM, 30 min pretreatment", "method": "(§3) Data are means (±SEM) of five (a), four (b, c, e) or three (d) separate experiments.\n(§4) Fig. 7 Effects of Eiken mutation on duration of cAMP signaling and desensitization to ligand re-challenge. a Assays were performed in Gs22a cells transiently transfected to express PTH1R-WT or a mutant PTH1R. a Duration of initial cAMP signaling response. […] Response to Ligand rechallenge. After the washout-periods shown in panel a, the cells were rechallenged with the same ligand (1.0 nM) for 60 min and cAMP accumulation was assessed. […] P values indicate comparison by Student’s t test to pre-vehicle treatment: Data are means ± SEM from four separate experiments each in duplicate (b) or quadruplicate (a).\n(§5) Basal and ligand-stimulated cAMP signaling was assessed via the glosensor cAMP reporter in Gs22a cells transiently transfected to express either the WT or a mutant hPTH1R in white 96-well plates at room temperature. […] The plate was then placed into a PerkinElmer Envision plate reader and luminescence, as counts per second (cps), was measured at 2-min intervals for 15 min, during which time luciferin uptake occurred and luminescence reached a near steady-state baseline level. The plate was then removed from the plate reader, CIDB alone (vehicle) or containing a test ligand at varying concentrations was added, and luminescence was again measured at 2 min intervals for an additional 30–60 min. […]"}, "PTH1R-E35K [6]": {"target": "T1, PTH1R-E35K", "experiment": "BRET β-arrestin2 recruitment to plasma membrane (rGFP-CAAX), HEK293", "type": "cell-based", "text": "as §1, §2"}, "PTH1R-Y134S [7]": {"target": "T2, PTH1R-Y134S", "experiment": "cAMP time course with ligand and after ligand washout (duration), Gs22a cells", "type": "cell-based", "conditions": "10 nM, 30 min pretreatment", "method": "as §3, §4, §5"}, "PTH1R-WT [8]": {"target": "T3, PTH1R-WT (Homo sapiens, UniProt Q03431)", "experiment": "Fluorescence microscopy of ligand internalization and β-arrestin2YFP recruitment, GBR-24 cells, ImageJ", "type": "cell-based", "conditions": "30 min", "text": "as §1, §2"}, "PTH1R-H223R [9]": {"target": "T4, PTH1R-H223R (Homo sapiens, UniProt Q03431, H223R)", "experiment": "Fluorescence microscopy of ligand internalization and β-arrestin2YFP recruitment, GBR-24 cells, ImageJ", "type": "cell-based", "conditions": "10 nM, 30 min", "text": "as §1"}, "PTH1R-H223R [10]": {"target": "T4, PTH1R-H223R", "experiment": "Inverse agonist effect on basal cAMP, Gs22a cells", "type": "cell-based", "conditions": "100 nM", "text": "Minutes Minutes [PTHrP(7-36)] Log M\n+Veh. +SW +Veh. +SW +Veh.+SW +Veh. +SW +SW\nDMSO Dyngo+Veh. DMSO Dyngo+Veh. DMSO Dyngo+Veh. DMSO Dyngo+Veh. DMSO DMSO Dyngo+Veh.Dyngo+SW\nSuppl ement al Fi gure 9.\nDat a f or PT H1R-H223R and\nDMSO+PTHrP(7-36) Dyngo+Veh. Dyngo+PTHrP(7-36) DMSO+Veh. DMSO+SW106Dyngo+Veh. […] DMSO+SW106Dyngo+Veh. Dyngo+SW106 PTH1R-R485X DMSO+Veh. DMSO+SW106Dyngo+Veh. Dyngo+SW106 ##* DMSO+Veh. DMSO+SW106Dyngo+Veh. Dyngo+SW106 ##*** DMSO+Veh. DMSO+SW106Dyngo+Veh. Dyngo+SW106 PTH1R-H223R)"}, "PTH1R-R485X [11]": {"tested_on": "PTH1R-R485X", "conditions": "100 nM", "method": "Data are means ± SEM of three separate experiments, with triplicate wells in each.\nBasal and ligand-stimulated cAMP signaling was assessed via the glosensor cAMP reporter in Gs22a cells transiently transfected to express either the WT or a mutant hPTH1R in white 96-well plates at room temperature. […] The plate was then placed into a PerkinElmer Envision plate reader and luminescence, as counts per second (cps), was measured at 2-min intervals for 15 min, during which time luciferin uptake occurred and luminescence reached a near steady-state baseline level. The plate was then removed from the plate reader, CIDB alone (vehicle) or containing a test ligand at varying concentrations was added, and luminescence was again measured at 2 min intervals for an additional 30–60 min."}, "PTH1R-R485X [12]": {"tested_on": "PTH1R-R485X", "conditions": "PTH(1-34) 1 nM", "method": "was added and moni t or i ng c ont i nued f or an addi t i onal 30 mi nut es .\nshown in panel a. c) Cel l s wer e pr et r eat ed f or 15 mi nut es wi t h ei t her DMSO or Dy ngo4a ( 30 uM) , t hen\nmi nut es ( agoni s t-was hout phas e) . T he AUCs of t he 90-mi nut e agoni s t-was hout r es pons es f or eac h\nwi t h v ehi c l e dur i ng t he agoni s t-was hout phas e ( 100%) ."}, "PTH1R-R485X [13]": {"tested_on": "PTH1R-R485X", "conditions": "30 nM, 30 min, RT", "method": "(§6) To visualize receptors on the surface of non-stimulated cells, cells were fixed with 3.7% paraformaldehyde for 5 min at room temperature, incubated for 1 hour at room temperature with anti-HA mouse monoclonal primary antibody (anti-HA.11, BioLegend, Cat. No. 901513), rinsed, incubated for 1 h at room temperature with a goat-anti-mouse IgG secondary antibody poly-conjugated to HRP (poly-HRP-anti-mIgG; ThermoFisher Scientific, Cat. No. 32230), stained with Tyramide-Alexafluor-594 (Tyr^594; Tyramide SuperBoost Kit ThermoFisher Scientific, Cat. No. B4092), then mounted on a glass microscope slide in Vectashield containing DAPI and imaged using a Nikon Eclipse fluorescence microscope at 400X magnification."}, "PTH1R-WT [14]": {"target": "T3, PTH1R-WT", "experiment": "Visualization of surface receptors after PTH(1-34)FAM pre-stimulation", "type": "cell-based", "conditions": "30 nM, 30 min, RT", "method": "as §6"}, "[15]": {"conditions": "30 nM TMR ligand (unlabeled: 10 nM), 30 min"}},
  "data": [
    {"substance": "AVSEIQL L H D KGKSIQD L R R R FFL H H L IAEIH TAEI.N H2 [Ile^5-PTHrP(1-36)]", "values": [
      {"measurement": "co-clustering of β-arrestin2YFP, in words", "setting": "PTH1R-R485X [1]; 10 nM unlabeled peptide", "result": "not"},
      {"measurement": "potency ratio vs PTHrP(1-36)", "setting": "PTH1R-E35K [2]", "result": "~10", "unit": "fold"},
      {"measurement": "potency vs PTH(1-34), in words", "setting": "PTH1R-E35K [2]", "result": "as potent as PTH(1-34)"},
      {"measurement": "co-clustering of β-arrestin2YFP, in words", "setting": "PTH1R-E35K [3]; 10 nM unlabeled peptide", "result": "r obust co-clust ering"},
      {"measurement": "co-clustering of β-arrestin2YFP, in words", "setting": "PTH1R-Y134S [4]; 10 nM unlabeled peptide", "result": "r obust co-clust ering"},
      {"measurement": "duration of cAMP response vs His5-PTHrP(1-36), in words", "setting": "PTH1R-E35K [5]", "result": "more sustained cAMP signaling response"},
      {"measurement": "potency ratio vs PTHrP(1-36)", "setting": "PTH1R-E35K [6]", "result": "~10", "unit": "fold"},
      {"measurement": "potency vs PTH(1-34), in words", "setting": "PTH1R-E35K [6]", "result": "as potent as PTH(1-34)"},
      {"measurement": "duration of cAMP response vs His5-PTHrP(1-36), in words", "setting": "PTH1R-Y134S [7]", "result": "more sustained cAMP signaling response"}
    ]},
    {"substance": "AVSEIQL L H D KGrKSIQD L R R R FFL H H L IAEIH TAEI.N H 2 [Ile^5-PTHrP(1-36)^TMR, tetramethyl rhodamine attached to the epsilon amino function of lysine-13]", "values": [
      {"measurement": "co-clustering of β-arrestin2YFP with ligand in endosomes, in words", "setting": "PTH1R-R485X [1]; [15]", "result": "remained dispersed in the cytoplasm"},
      {"measurement": "co-clustering of β-arrestin2YFP with ligand in endosomes, in words", "setting": "PTH1R-WT [8]; 30 nM TMR ligand (unlabeled: 10 nM)", "result": "robust co-clustering of β-arrestin2^YFP"},
      {"measurement": "co-clustering of β-arrestin2YFP with ligand in endosomes, in words", "setting": "PTH1R-E35K [3]; [15]", "result": "robust co-clustering of β-arrestin2^YFP"},
      {"measurement": "co-clustering of β-arrestin2YFP with ligand in endosomes, in words", "setting": "PTH1R-Y134S [4]; [15]", "result": "robust co-clustering of β-arrestin2^YFP"}
    ]},
    {"substance": "AVSEIQLnLHNLGrKH L ASVERnLQWLRKKLQDVHNF.NH2 [PTH(1-34)^TMR, tetramethyl rhodamine attached to the epsilon amino function of lysine-13]", "values": [
      {"measurement": "co-localization of ligand clusters with β-arrestin2YFP, in words", "setting": "PTH1R-R485X [1]; 10 nM, 30 min", "result": "did not co-localize in clusters"},
      {"measurement": "co-localization of ligand clusters with β-arrestin2YFP, in words", "setting": "PTH1R-H223R [9]", "result": "co-localized with β-arrestin2^YFP"},
      {"measurement": "co-localization of ligand clusters with β-arrestin2YFP, in words", "setting": "PTH1R-WT [8]; 10 nM", "result": "co-localized with β-arrestin2^YFP"},
      {"measurement": "co-localization of ligand clusters with β-arrestin2YFP, in words", "setting": "PTH1R-E35K [3]; 10 nM, 30 min", "result": "co-localized with β-arrestin2^YFP"},
      {"measurement": "co-localization of ligand clusters with β-arrestin2YFP, in words", "setting": "PTH1R-Y134S [4]; 10 nM, 30 min", "result": "co-localized with β-arrestin2^YFP"}
    ]},
    {"substance": "LLHDLdWKSIQD L R R R FWL H H L IAEIH TAEY.N H 2 [dTrp^12-PTHrP(7-36), [Leu^11,dTrp^12,Trp^23,Tyr^36]-PTHrP(7–36)NH2]", "values": [
      {"measurement": "effect on basal cAMP, in words", "setting": "PTH1R-H223R [10]", "result": "rapid decreases in the intracellular cAMP levels"},
      {"measurement": "effect on basal cAMP, in words", "setting": "PTH1R-R485X [11]", "result": "rapid decreases in the intracellular cAMP levels"},
      {"measurement": "inhibition of subsequently added PTH(1-34) cAMP signaling, in words", "setting": "PTH1R-R485X [12]", "result": "dose-dependent inhibition of cAMP signaling"}
    ]},
    {"substance": "SVSEIQL MH N L GfKH L N SMER VEWL R KKL QD VH N F.OH [PTH(1-34)FAM, 5(6)-carboxyfluorescein attached to the epsilon amino function of lysine-13]", "values": [
      {"measurement": "ligand internalization, in words", "setting": "PTH1R-R485X [13]", "result": "observed mainly in internalized clusters"},
      {"measurement": "ligand internalization, in words", "setting": "PTH1R-WT [14]", "result": "observed mainly in internalized clusters"}
    ]}
  ]
}
